Experimental data as given in PubChem BioAssay AID1996.
≈ marks a conversion by molar mass, not a printed value.

Settings: buffer; pH 7.4; 200.0 µM

| Compound | solubility kinetic [µg/mL] |
| --- | --- |
| O=C(/C=C/c1ccccc1[N+](=O)[O-])NCc1ccccc1Cl | 1.5 (≈ 4.74 µM) |
| CC1=C(C(=O)OC(C)(C)C)C(c2cccc3ccccc23)NC(=O)N1 (stereo not given) | < 0.4 |
| Cc1cccc(NC(=O)C(=O)C2C(=O)Nc3ccccc32)c1 (stereo not given) | > 44.1 |
| CC(=O)OCC(=O)Nc1c(C)cccc1C | > 33.2 |
| COc1ccc(-n2c(O)c(C=NCc3ccc4c(c3)OCO4)c(=O)[nH]c2=O)cc1 | 6.8 (≈ 17.2 µM) |
| Nc1nc(CCl)nc(Nc2cccc3ccccc23)n1 | 41 (≈ 143 µM) |
| Cn1c2c(c3cc([N+](=O)[O-])ccc31)CCCC2 | < 0.2 |
| N#Cc1cc(N)ccc1-n1cccc1 | 27.2 (≈ 148 µM) |
| O=C(COC(=O)CCNS(=O)(=O)c1ccccc1)NC1CC1 | 43.8 (≈ 134 µM) |
| CS(=O)(=O)Nc1ccccc1C(=O)OCC(=O)NC1CC1 | > 46.9 |
| COC(=O)c1sc(SC)c2c1CC(C)(C)C/C2=N/O | < 0.6 |
| CCC1Cc2c(nc(N)c3c(N)nc(N4CCOCC4)c(C#N)c23)O1 (stereo not given) | 8.9 (≈ 26.1 µM) |
| CCCCn1c(C)c(C(=O)OCC)c2c(CN3CCCC3)c(O)ccc21 | 53.1 (≈ 148 µM) |
| Nc1nc(Cl)cc(=O)n1Cc1ccc(Cl)cc1 | 28.1 (≈ 104 µM) |
| CN1CCN(S(=O)(=O)c2ccc(Cl)c3ccccc23)CC1 | 45.1 (≈ 139 µM) |
| CCOC(=O)c1sc(NC(=O)c2ccoc2C)c(C(N)=O)c1C | 7.3 (≈ 21.7 µM) |
| COc1ccc(/C=N/NC(=O)c2ccccc2O)cc1COc1ccccn1 | > 56.6 |
| Cn1c(CO)cnc1S(=O)(=O)Cc1ccc(Cl)cc1 | > 45.1 |
| N#C/C(=C\c1cccs1)C(=O)Nc1ccccn1 | 12.8 (≈ 50.1 µM) |
| C/C(=N/NC(=O)c1ccncc1)c1ccccc1 | > 35.9 |
| CSc1cccc(NC(=O)C2(S(=O)(=O)c3ccc(C)cc3)CC2)c1 | 19.9 (≈ 55.1 µM) |
| N/C(=N/OC(=O)c1cccc([N+](=O)[O-])c1)c1cccc([N+](=O)[O-])c1 | 0.5 (≈ 1.51 µM) |
| CCOC(=O)N1CCN(C(=O)c2ccc(OCC)cc2)CC1 | > 46 |
| COc1ccc(OCC(=O)OC(C)CN2CCCCC2)cc1 (stereo not given) | > 46.1 |

| Compound | solubility kinetic [µg/mL] |
| --- | --- |
| COC(=O)C1Cc2ccccc2CN1S(=O)(=O)c1ccc(C)cc1 (stereo not given) | 19.6 (≈ 56.7 µM) |
| Cc1cccc(OCc2ccc(C(=O)N3CCOCC3)o2)c1 | > 45.2 |
| N=C1SC(CC(=O)Nc2ccccc2[N+](=O)[O-])C(=O)N1c1ccccc1 (stereo not given) | 0.2 (≈ 0.54 µM) |
| Cc1c(C(=O)N(C)Cc2nc3ccccc3c(=O)[nH]2)oc2ccccc12 | 4.6 (≈ 13.2 µM) |
| Cc1ccc(S(=O)(=O)NCc2ccco2)cc1C(N)=O | > 44.1 |
| Cn1cccc1C(=O)NCC(c1ccc(F)cc1)N1CCOCC1 (stereo not given) | 47.3 (≈ 143 µM) |
| O=C(CCN1C(=O)c2ccncc2C1=O)Nc1cc(F)ccc1F | 41.7 (≈ 126 µM) |
| COc1cc(C(=O)N2CCCc3ccccc32)c([N+](=O)[O-])cc1OC | > 51.4 |
| O=C(Nc1ncccn1)c1ccc([N+](=O)[O-])cc1[N+](=O)[O-] | 38.7 (≈ 134 µM) |
| O=C(COC(=O)c1ccc(OC(F)(F)F)cc1)Nc1ncccn1 | 10.1 (≈ 29.6 µM) |
| Cc1cccc(NC(=O)C2COc3ccccc3O2)c1 (stereo not given) | 7.8 (≈ 29 µM) |
| Cc1ccc(NC(=O)CN(C)C(=O)CSc2ccccc2F)cc1 | 5.2 (≈ 15 µM) |
| O=C(COC(=O)c1cccs1)Nc1cccc(Cl)c1 | 7.6 (≈ 25.7 µM) |
| CCOc1ccc(CNCCN2CCCC2)cc1.O=C(O)C(=O)O | 28.2 |
| O=C(COC(=O)c1ccc([N+](=O)[O-])cc1)NC12CC3CC(CC(C3)C1)C2 | 3.3 (≈ 9.21 µM) |
| COc1ccccc1NC(=O)NCCN1CCNC1=O | 39.7 (≈ 143 µM) |
| Cc1nc2ccc(C(=O)Nc3ccc(N(C)C)cc3)cc2s1 | 4.1 (≈ 13.2 µM) |
| COc1ccc(CCNC(=O)COC(=O)Cc2ccccc2[N+](=O)[O-])cc1 | > 55.9 |
| Cc1noc(C)c1C(=O)NCCc1c(C)[nH]c2ccccc12 | 41.5 (≈ 140 µM) |
| COc1ccc(CNC(=O)CCC(=O)c2ccc(F)cc2)cc1OC | > 51.8 |
| O=C(NCCCCc1ccccc1)c1ccccc1Br | 8.6 (≈ 25.9 µM) |
| COc1cc2c(cc1OC)C(c1cc([N+](=O)[O-])ccc1O)NCC2 (stereo not given) | > 49.6 |
| O=C(Nc1ccc(-c2n[nH]c(=S)o2)cc1)c1ccccc1 | > 44.6 |
| CCC1CCCCN1C(=O)COc1ccc(F)cc1 (stereo not given) | 38.1 (≈ 144 µM) |

| Compound | solubility kinetic [µg/mL] |
| --- | --- |
| C=CCn1c2[n+](c3ccccc3c1=O)CCCCC2.[I-] | 41.6 |
| Cc1cc(C(=O)N2CCC(Cc3ccccc3)CC2)no1 | 36.7 (≈ 129 µM) |
| CCc1ccc(NS(=O)(=O)c2cccc3nsnc23)cc1 | 40.5 (≈ 127 µM) |
| COc1ccc(NC(=O)Cn2cnc3ccccc3c2=O)cc1OC | 12.6 (≈ 37.1 µM) |
| COC(=O)c1cc(OC)nc(OC)c1 | 3 (≈ 15.2 µM) |
| CCOC(=O)N1CCc2c(sc3ncn(Cc4ccc(F)cc4)c(=O)c23)C1 | 20.8 (≈ 53.7 µM) |
| O=C(NCc1ccc(Cl)cc1)Nc1ccc(F)cc1 | 1.3 (≈ 4.66 µM) |
| CCCC1(CCC)NC(=O)N(CC(=O)N2CCc3ccccc32)C1=O | > 51.5 |
| Cc1ccc(CNC(=O)CCSCc2ccccc2C)cc1 | 6.5 (≈ 20.7 µM) |
| Cc1ccc(Cl)cc1NC(C#N)c1ccccc1 (stereo not given) | 6.5 (≈ 25.3 µM) |
| Cc1cc(C)nc(N2CCC(C(=O)NC3CC3)CC2)n1 | 36.4 (≈ 133 µM) |
| S=C1NCN(Cc2cccnc2)CN1c1cccc2ccccc12 | > 50.2 |
| CC1Nc2ccc(C(=O)NC3CCCCC3)cc2NC1=O (stereo not given) | 19.2 (≈ 66.8 µM) |
| COn1c(=O)c(-c2ccc(C)cc2)[n+]([O-])c2ccccc21 | > 42.3 |
| Cc1c(C(=O)N2CCC2)oc2ccc(Br)cc12 | 19.5 (≈ 66.3 µM) |
| Cc1cc(C)c(C)c(S(=O)(=O)N[C@@H](C)C(=O)OCC(N)=O)c1C | > 51.4 |
| CC(C)(CO)NCc1c(OCc2ccc(Cl)cc2)ccc2ccccc12.Cl | 57.1 |
| COc1cccc(C(=O)N2CCN=C2SC)c1 | 35.1 (≈ 140 µM) |
| CCc1sc(C(=O)Nc2nccs2)cc1C | 3.6 (≈ 14.3 µM) |
| O=Cc1ccc(OCCN2CCCC2=O)cc1 | > 35 |
| COc1ccc(OCCSc2nc(N)cc(=O)[nH]2)cc1 | 20.7 (≈ 70.6 µM) |
| C(=C\c1ccc2ccccc2n1)/c1ccccc1 | 0.5 (≈ 2.16 µM) |
| Cc1c(C=C2C(=O)NC(=O)NC2=O)c(=O)n(-c2ccccc2)n1C | > 48.9 |
| O=[N+]([O-])c1cc(F)c(N2CCCC2)cc1Br | 1.6 (≈ 5.53 µM) |

| Compound | solubility kinetic [µg/mL] |
| --- | --- |
| CCOC(=O)C1=C(C)OC(N)=C(C#N)C1c1cc(SCC)oc1C (stereo not given) | 23.9 (≈ 68.6 µM) |
| Cc1cc(=O)[nH]c(SCC(=O)Nc2ccc(F)cc2)c1C#N | > 47.6 |
| O=C(NC1CCCCC1)c1ccccc1C(F)(F)F | 38.9 (≈ 143 µM) |
| CC1CCc2c(sc(/N=C/c3cccnc3)c2C(N)=O)C1 (stereo not given) | 26.8 (≈ 89.5 µM) |
| CCN(CC)c1ccc2c(O)cc(=O)oc2c1 | > 35 |
| COC(=O)c1ccc(N2CCN(c3ccccc3)CC2)nc1 | 1.7 (≈ 5.72 µM) |
| C=CCn1c(-c2ccc(Cl)cc2)cnc1SC(C)C(N)=O (stereo not given) | 7.1 (≈ 22.1 µM) |
| CC(Nc1c([N+](=O)[O-])c(=O)oc2ccccc12)c1ccccc1 (stereo not given) | 8.8 (≈ 28.4 µM) |
| CCC(=O)c1ccc(OC(=O)c2cnccn2)cc1 | > 38.4 |
| COc1nc(NC2CCCCC2)nc(NC(C)(C)C)n1 | 20.7 (≈ 74.1 µM) |
| N/C(=N\O)c1ccncc1 | > 20.6 |
| O=C(NC1CCN(Cc2cccc([N+](=O)[O-])c2)CC1)c1ccccc1 | 32.4 (≈ 95.5 µM) |
| O/N=C1\CCCc2c1nc(-c1ccccc1F)n2O | > 39.2 |
| CCOCCCNC(=O)C1CCCN1C(=O)Nc1ccccc1[N+](=O)[O-] (stereo not given) | > 54.7 |
| O=C(Nc1nc2ccccc2[nH]1)Nc1ccccc1F | 3.3 (≈ 12.2 µM) |
| Cc1nc(/N=C(\N)NC(=O)NC2CCCCC2)nc2ccccc12 | 12.7 (≈ 38.9 µM) |
| CCC(=O)c1c[nH]c(C(=O)NCc2cccnc2)c1 | > 38.6 |
| O=C(NCCCN1CCOCC1)c1cn(-c2ccccc2)nc1-c1ccc(F)cc1 | > 61.3 |
| COc1cc(CC(=O)OCC(=O)NC(C)c2ccccc2)cc(OC)c1OC (stereo not given) | > 58.1 |
| CC1CC(C)CN(c2ccc(NS(=O)(=O)c3ccccc3)cc2C(=O)O)C1 (stereo not given) | 57.2 (≈ 147 µM) |
| O=C(NCc1ccc(Cl)c(Cl)c1)C1CCCC1 | 32.6 (≈ 120 µM) |
| CCS(=O)(=O)N1CCN=C1SCc1cccc(F)c1 | > 45.4 |
| CS(=O)(=O)Nc1ccccc1N=C(c1ccccc1)c1ccccc1 | 23.2 (≈ 66.2 µM) |
| O=[N+]([O-])c1cc(S(=O)(=O)N2CCCC2)ccc1SCCO | > 49.9 |

| Compound | solubility kinetic [µg/mL] |
| --- | --- |
| O=C(CNS(=O)(=O)c1ccccc1)Nc1cccc([N+](=O)[O-])c1 | 49.1 (≈ 146 µM) |
| COc1ccc(CCNC(=O)COC(=O)/C=C/c2cccc(F)c2)cc1 | 5.4 (≈ 15.1 µM) |
| COc1ccc(NS(=O)(=O)c2ccc(O)c(NS(=O)(=O)c3ccc(NC(C)=O)cc3)c2)cc1 | > 73.7 |
| CCOC(=O)c1ccc(NC(=S)NCc2ccccc2)cc1 | < 0.3 |
| COC(=O)c1sc(NC(=O)c2ccco2)c(C#N)c1C | 3.7 (≈ 12.7 µM) |
| COc1ccc(C(C)NC(=O)c2ccncc2)cc1 (stereo not given) | 36.2 (≈ 141 µM) |
| CSc1nc(N)nc(N(C)C)n1 | 24.3 (≈ 131 µM) |
| CCc1ccc(C)[n+](CC(=O)c2cccs2)c1.[Cl-] | > 42.3 |
| O=C(CSc1nc(O)cc(=O)[nH]1)N1CCOCC1 | > 40.7 |
| Cc1ccc(C(=O)Nc2ccc(OCc3ccccc3)cc2)s1 | 3.8 (≈ 11.7 µM) |
| Cc1cccc(OCC(=O)OCC(=O)N2CCN(C(=O)c3ccco3)CC2)c1C | > 60.1 |
| O=C(O)Cc1c[nH]c2ccccc12 | > 26.3 |
| Cc1cc(C)nc(N2CCCC(C(=O)Nc3ccc(F)cc3)C2)n1 (stereo not given) | 1.2 (≈ 3.65 µM) |
| COc1ccc(CC(=O)Nc2ccccc2-c2ccccc2)cc1OC | 43.9 (≈ 126 µM) |
| CC(CCN1CCN(c2ccccc2)CC1)c1ccccc1.Cl (stereo not given) | 29.7 |
| CC(O)c1cccc(NC(=O)C2CCCCC2)c1 (stereo not given) | 25.6 (≈ 104 µM) |
| Cc1ccc(N2N=C(C(=O)O)CCC2=O)cc1Cl | > 40 |
| Nc1nc2sc3c(c2cc1C(=O)NCC(=O)O)CCCC3 | > 45.8 |
| Cc1ccc(SCCOCCN2CCOCC2)cc1.Cl | > 47.7 |
| CC(=O)N1CCN(c2ccc(S(C)(=O)=O)cc2[N+](=O)[O-])CC1 | > 49.1 |
| O=[N+]([O-])c1ccccc1S(=O)(=O)N1CCCc2ccccc21 | 10.9 (≈ 34.2 µM) |
| O=C(CSCc1ccccc1Br)Nc1ccccc1 | 29.5 (≈ 87.7 µM) |
| O=C1c2ccccc2C(=O)N1C1CCCCC1 | 1.3 (≈ 5.67 µM) |
| N/C(=N\OC(=O)Cc1ccc([N+](=O)[O-])cc1)c1ccccn1 | 26.6 (≈ 88.6 µM) |
